# Read-outs that look alike come from different tables or passages of the source.
# Legend:
# ASIC1a [1] = biological target: T1, ASIC1a (Homo sapiens, UniProt P78348); conditions: read-out: IC50 ASIC1a inhibition; cited from earlier work
# T1 construct: expressed in transfected cells; host or cells: HEK293T
# T1 sequence (P78348 1-528): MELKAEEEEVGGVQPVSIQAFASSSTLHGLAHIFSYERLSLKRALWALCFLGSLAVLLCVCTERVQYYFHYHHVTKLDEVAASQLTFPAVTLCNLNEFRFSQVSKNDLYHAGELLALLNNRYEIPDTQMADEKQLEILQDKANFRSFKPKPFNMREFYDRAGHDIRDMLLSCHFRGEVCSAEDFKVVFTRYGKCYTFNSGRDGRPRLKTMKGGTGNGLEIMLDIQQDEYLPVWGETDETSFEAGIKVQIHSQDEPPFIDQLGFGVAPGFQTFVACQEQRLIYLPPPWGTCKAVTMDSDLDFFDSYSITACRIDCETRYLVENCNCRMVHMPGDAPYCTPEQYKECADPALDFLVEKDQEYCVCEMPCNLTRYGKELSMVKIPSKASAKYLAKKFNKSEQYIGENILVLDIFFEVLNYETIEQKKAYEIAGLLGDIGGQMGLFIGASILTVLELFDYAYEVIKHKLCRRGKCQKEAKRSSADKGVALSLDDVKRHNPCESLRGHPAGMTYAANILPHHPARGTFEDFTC
# ASIC1a [2] = biological target: T1, ASIC1a; assay: Whole-cell voltage-clamp recording of ASIC1a currents in transfected HEK293T cells; format: cell-based; conditions: for inhibition at 50 µM: HEK-293T
# Protocol: Cells were plated at a low density in 12-well plates 24 h prior to transfection. For transfection, Lipofectamine 3000 (Invitrogen, Thermo Fisher Scientific, Inc., Waltham, MA, USA) was utilized to introduce 300 ng of ASIC1a cDNA into adherent cells, which were then analyzed for 24–48 h post-transfection. […] Borosilicate glass micropipettes, fashioned to achieve a resistance of 2–6 MΩ, were filled with an intracellular recording solution comprising 140 mM KCl, 2 mM MgCl2, 5 mM EGTA, 5 mM NaCl, and 10 mM HEPES (adjusted to pH 7.4 with KOH). […] Current signals were amplified using a SUTTER IPA-2 amplifier, with data acquisition and analysis performed using SutterPatch 9.0 software. Data processing was carried out using GraphPad Prism version 8.0.
# [3] = 50 μM, HEK293T cells transfected with ASIC1a, currents triggered by pH 6.0, holding potential −60 mV, read-out: inhibition rate of ASIC1a currents
SMILES,IC50 (ASIC1a [1]) [µM],inhibition at 50 µM (ASIC1a [2]; [3]) [%],other results
O=c1c(-c2ccc(O)cc2)coc2c([C@@H]3O[C@H](CO)[C@@H](O)[C@H](O)[C@H]3O)c(O)ccc12 [Puerarin],9.31,,
"C=CC1C2C=C(C)CC1(N(C)C)C1=C(C(=O)OC)C(=O)NC1(O)C2 (centres unmarked) [Compound 1, lycocasine A]",,,"melting point: 187 to 189 °C; IC50 (ASIC1a [2]): 48.7 ± 0.92 µM; inhibition at 50 µM (ASIC1a [2]; pH 6, read-out: inhibition rate of ASIC1a currents): > 50%"
N=C(N)NC(=O)c1nc(Cl)c(N)nc1N [Amiloride],,> 50,
COc1cc2c(cc1O)[C@H](Cc1ccc(Oc3cc(C[C@@H]4NCCc5cc(OC)c(O)cc54)ccc3O)cc1)NCC2 [Lindoldhamine],9,,
COC1=C[C@@H]2[C@@H]3Cc4ccc(OC)c(O)c4[C@]2(CCN3C)CC1=O [Sinomenine],~1,,
"CC1=C[C@H]2Cc3[nH]c(=O)ccc3[C@]3(C1)NCCC[C@H]23 [Compound 7, huperzine B]",,< 30,

# Source: publication PMC11013477, “Lycocasine A, a Lycopodium Alkaloid from Lycopodiastrum casuarinoides and Its Acid-Sensing Ion Channel 1a Inhibitory Activity” (Molecules, 2024)
